From patent publication US11291642B2, “Dimethyl fumarate particles and pharmaceutical compositions thereof” (BIOGEN MA INC., priority 2015, dated 2022)
Where a name gives a salt, the structure may show the parent alone.

Columns and labels:
Format in all cases: physicochemical
[1] = Particle size of dimethyl fumarate by Malvern laser diffraction; conditions: for Span: Span=(D90−D10)/D50; for Span / D × 10 (μm) / D × 50 (μm) / D × 90 (μm) / D × 97 (μm) / ≤10 μm: Table 1; for ≤10 μm: fraction of particles ≤10 μm; for d10 / d50 / d90: 350 kg batch, laser diffraction, Table 3
Method: As use herein, the particle size is expressed in terms of volume diameter and the particle size distribution is expressed in terms of D50, D10, D90 and span.
In certain embodiments, the particle size described herein are measured using a laser diffraction technique that correlates light scattering to particle volume on which effective length or effective diameter is calculated. The distribution is based on a measurement of thousands of particles. Particle samples can be in dry form or in slurry. In one embodiment, the instrument used to determine particle size/distribution is a Beckman Coulter LS230 or a Malvern Mastersizer.
As used herein, “D50”, also known as the median diameter, corresponds to the value under which 50% of the particles has a lower volume diameter. “D90” corresponds to the value under which 90% of the particles has a lower volume diameter. “D10” corresponds to the value under which 10% of the particles has a lower volume diameter.
As used herein, “span” is a measure for particle size distribution. It is calculated according to the following equation: Span=(D90−D10)/D50

[2] = FT4 Powder Rheometer shear test (flow function); conditions: for Flow Function: FT4, Table 2, FF=MPS/UYS; for Flow Function (FF): 350 kg batch, FT4, Table 3
Method: Shear testing measures powder shear properties which involves the stress limit required to initiate a powder flow. The shear testing uses a segmented rotational shear cell head and a 10 ml powder sample in the borosilicate test vessel. Powder is filled into the vessel. The shear cell head is simultaneously rotated and moved axially under the powder sample at pre-determined normal stresses as the shear stresses are measured to calculate several parameters, including the flow function (FF). As used herein, “flow function” or FF is a parameter commonly used to rank powder's flowability and is determined using a shear test. The data produced in the shear test represents the relationship between shear stress and normal stress, which can be plotted to define the powder's Yield Locus, which is shown in FIG. 21. Fitting Mohr stress circles to the yield locus identifies the Major Principle Stress (MPS) and Unconfined Yield Strength (UYS). Flow function is the ratio of Major Principle Stress (MPS) to the Unconfined Yield Strength (UYS): FF=MPS/UYS. Usually, powders of low cohesion have higher FF and that represents better flow properties. Shear testing measures powder shear properties which involves the stress limit required to initiate a powder flow. The shear testing used a segmented rotational shear cell head and a 10 ml powder sample in the borosilicate test vessel. Powder was filled into the vessel. The shear cell head was simultaneously rotated and moved axially unto the powder sample at pre-determined normal stresses as the shear stresses were measured to calculate several parameters that include the flow function (FF) and powder cohesion (in kPa). Usually, powders of low cohesion have higher FF and that represents better flow properties.

[3] = FT4 Powder Rheometer dynamic testing (flow rate index, specific energy); conditions: for Flow Rate Index: flow energy at 10 mm/s / 100 mm/s
Method: In certain embodiments, powder characterization described herein can be determined using the FT4 Powder Rheometer (Freeman Technology Ltd, Tewkesbury, UK) with the 25 mm vessel assembly having 23.5 mm diameter blades, vented piston, a segmented rotational shear cell accessory and a 10 or 25 ml borosilicate vessel. Powder testing can be generally divided into three categories: dynamic tests, permeability test and shear test. Dynamic testing uses the 23.5 mm diameter blades and a 25 ml powder sample in the borosiliate test vessel. Powder is filled into the vessel and the blades are simultaneously rotated and moved axially into the powder sample as the axial and rotational forces are measure and used to calculate the dynamic flowability parameters, such as flow rate index (FRI) and Specific Energy (SE). As used herein, the “flow rate index” (or FRI) is a measure of a powder's sensitivity to variable flow rate and is obtained as the ratio of the total energy required to induce powder flow at 10 mm/s and 100 mm/s blade tip speed. A larger deviation from 1 indicates greater sensitivity of a powder to variable flow rate. FRI=Flow Energy@10mm/s/Flow Energy@100mm/s As used herein, “specific energy” or SE is a measure of the powder flow in low stress environment and is derived from the shear forces acting on the blades as they rotate upward through the powder. The SE is recorded as the flow energy of the powder normalized by its weight in mJ/g during the upward spiral movement of the blades in a FT4 Powder Rheometer describe above. A lower SE is an indication of a less cohesive powder and better flow properties. DMF powder characterization was conducted using the FT4 Powder Rheometer (Freeman Technology Ltd, Tewkesbury, UK) using the 25 mm vessel assembly which consists of 23.5 mm diameter blades, vented piston, a segmented rotational shear cell accessory; and a 10 or 25 ml borosilicate vessel. All powders were pre-conditioned by the instrument's built-in conditioning step. Dynamic testing used the 23.5 mm diameter blades and a 25 ml powder sample in the borosilicate test vessel. Powder was filled into the vessel. The blades were simultaneously rotated and moved axially into the powder sample as the axial and rotational forces were measured and used to calculate the dynamic flowability parameters. Among dynamic parameters tested are Flow rate Index (FRI) and Specific Energy (SE). Their measurement techniques are described below: The FRI is a measure of a powder's sensitivity to variable flow rate and it is obtained as the ratio of the total energy required to induce powder flow at 10 mm/s and 100 mm/s blade tip speed. A larger deviation from 1 indicates greater sensitivity of a powder to variable flow rate. SE is a measure of the powder flow in low stress environment and is derived from the shear forces acting on the blades as they rotate upward through the powder. The SE is recorded as the flow energy of the powder normalized by its weight in […] during the upward spiral movement of the blades. A lower SE is an indication of a less cohesive powder and better flow properties.

[4] = Particle morphology by Malvern Morphologi G3; conditions: compared to jet milled material
Method: As used herein, “aspect ratio” is the ratio of width divided by length of a particle. “Elongation” is defined as 1-aspect ratio. Shapes symmetrical in all axes, such as circles or squares, will tend to have an elongation close to 0, whereas needle-shaped particles will have values closer to 1. Elongation is more an indication of overall form than surface roughness. As used herein, “convexity” is a measurement of the surface roughness of a particle and is calculated by dividing the perimeter of an imaginary elastic band around the particle by the true perimeter of the particle. A smooth shape, regardless of form, has a convexity of 1 while a very ‘spiky’ or irregular object has a convexity closer to 0. As used herein, “circularity” or “high sensitivity circularity” is a measurement of the ratio of […]. A perfect circle has a circularity of 1 while a very narrow rod has a High Sensitivity (HS) Circularity close to 0. The higher the HS Circularity value the closer it is to a circle. Intuitively, circularity is a measure of irregularity or the difference from a perfect circle. […] The percentage of thicker particles can be determined using Malvern Instrument Morphologi G3. […] The intensity of light is quantified by the grey scale factor which depends on the amount of light reaching the detector. […]

[5] = Flow of drug product blend measured with Flodex; conditions: blends of DMF with other excipients as in approved twice a day formulation; FIG. 1
Source text: The y-axis indicates the aperture of cone containing the blend powder. Smaller aperture indicates better flow.

[6] = Comparison of unmilled coarse DMF versus wet-milled DMF for enteric coating in fluid bed; conditions: for Coated crystals: enterically coated particles made from the named API; for Flow of API particle in fluid bed: fluid bed coating process; for Particle morphology: uncoated API particles
Method: The enteric coated DMF is prepared using a Glatt GPCG-2 fluid bed granulator with a 6′ Wurster column. Dissolution was run with USP apparatus II by the Pharmaceutical Analytical Development Department with the following method.
DMF first de-lumped with a Frewitt Comill with screen size 1.0 mm. Then, it is mixed with silicon dioxide (Aerosil) and being fluidize in the fluid bed granulator for 5 minutes.
Eudragit L100 and triethyl citrate is used for coating an enteric layer for stomach acid protection on the DMF API particles. Samples were taken at different L100 weight gain to compare gastric protection capability.
Unmilled coarse DMF were coated according to the method of described in Example 5. Various properties of the unmilled coarse DMF and enterically coated DMF are compared with wet-milled DMF and enterically coated DMF made from wet-milled DMF.

[7] = FT4, Table 2, no unit printed in table (mJ/g)
[8] = listed as wet-milled DMF particles

| SMILES | Span [1] | D × 10 (μm) [1] | D × 50 (μm) [1] | D × 90 (μm) [1] | D × 97 (μm) [1] | ≤10 μm [1] | Flow Function [2] | Flow Rate Index ([3]; FT4, Table 2) | Specific Energy [3, 7] | other results |
| --- | --- | --- | --- | --- | --- | --- | --- | --- | --- | --- |
| COC(=O)/C=C/C(=O)OC [Batch A14DS0977, dimethyl fumarate] | 1.554 | 51.5 μm | 127 μm | 249 μm | 319 μm | 1.87% | – | – | – | – |
| COC(=O)/C=C/C(=O)OC [Batch B1417-140304, dimethyl fumarate] | – | – | – | – | – | – | 2.25 | 1.50 | 5.48 | – |
| COC(=O)/C=C/C(=O)OC [2014-4281-A.9, dimethyl fumarate] | 1.58 | 26.8 μm | 88.2 μm | 166 μm | 210 μm | 3.02% | 2.50 | 1.33 | 6.42 | – |
| COC(=O)/C=C/C(=O)OC [Batch 11P1310, dimethyl fumarate] | 2.05 | 9 μm | 30 μm | 70 μm | 97 μm | 11.48% | – | – | – | – |
| COC(=O)/C=C/C(=O)OC [Run 1, dimethyl fumarate] | – | – | – | – | – | – | – | – | – | Flow Function (FF) [2]: 10.3; Flow rate Index (FRI) ([3]; 350 kg batch, FT4, Table 3): 1.61; Specific Energy ([3]; 350 kg batch, FT4, Table 3): 12.21 mJ/g; d10 [1]: 35 μm; d50 [1]: 83 μm; d90 [1]: 156 μm |
| COC(=O)/C=C/C(=O)OC [2014-4281-A.4, dimethyl fumarate] | 1.562 | 31.9 μm | 96 μm | 182 μm | 235 μm | 2.61% | 5.84 | 1.11 | 4.87 | – |
| COC(=O)/C=C/C(=O)OC [Batch A14DS0978, dimethyl fumarate] | 1.593 | 44.1 μm | 113 μm | 224 μm | 294 μm | 2.32% | 12.84 | 1.68 | 8.67 | – |
| COC(=O)/C=C/C(=O)OC [Batch A14DS1097, dimethyl fumarate] | 1.772 | 33.1 μm | 87.8 μm | 189 μm | 257 μm | 2.89% | 5.97 | 1.54 | 9.19 | – |
| COC(=O)/C=C/C(=O)OC [2014-4281-A.8, dimethyl fumarate] | 1.71 | 27.2 μm | 70.8 μm | 148 μm | 208 μm | 3.87% | 3.29 | 1.37 | 6.64 | – |
| COC(=O)/C=C/C(=O)OC [Run 2, dimethyl fumarate] | – | – | – | – | – | – | – | – | – | Flow Function (FF) [2]: 4.95; Flow rate Index (FRI) ([3]; 350 kg batch, FT4, Table 3): 1.39; Specific Energy ([3]; 350 kg batch, FT4, Table 3): 12.18 mJ/g; d10 [1]: 39 μm; d50 [1]: 83 μm; d90 [1]: 150 μm |
| COC(=O)/C=C/C(=O)OC [Wet milled API, dimethyl fumarate] | – | – | – | – | – | – | – | – | – | Particle shape (aspect ratio, HS circularity, convexity) [4]: slightly less elongated, more circular and less edgy; Thick particles (percentage of particles with intensity <80) [4]: contained more thick particles; Powder flow of drug product blend [5]: improvement in powder flow; Coated crystals [6]: Isolated and small; Coated crystals [6, 8]: small coated particles with uniform size distribution; Flow of API particle in fluid bed [6]: uniform flow; Flow of API particle in fluid bed [6, 8]: desirable flowability; Particle morphology [6]: 3D structure; Particle morphology [6, 8]: three dimensional morphology; Particle size D50 ([6]; uncoated API, Table 8): D50 = 60-100 μm |
